In brackets after ≈: the same amount, converted by molar mass.
Experiments:
[1] = test system: M. tuberculosis H37Rv::pCHERRY3; assay type: cell-based, Mycobacterium tuberculosis; settings: OD and fluorescence readouts, 5 d, listed as Ambien, 1
[2] = test system: replicating Mtb H37Rv; assay type: cell-based; settings: Mycobacterium tuberculosis, read-out: MIC in MABA

Question: For `Cc1ccc(-c2nc3ccc(C)cn3c2CC(=O)N(C)C)cc1` [Compound 1, N,N-dimethyl-2-(6-methyl-2-p-tolyl-imidazo[1,2-a]pyridin-3-yl)acetamide], which “MIC Mtb H37Rv 7H9-Tw-OADC” value [1] is on record?
Answer: 10 µM (≈ 3.07 µg/mL)

Question: What about the MIC [2] of the same compound?
Answer: 49 to 53 µM (≈ 15.1 to 16.3 µg/mL)
